This note sets out measurements from patent publication US7169768B1, “Method of decreasing atherosclerosis and its complications” (priority 1997, dated 2007).

The structures appear in SMILES notation.

This assay is described as follows: Retrospective questionnaire study of patient-reported cardiac events (heart attack, coronary artery bypass or angioplasty). The following applies: for Events/Year: cardiac events per subject year, patients on drug for at least one year; for Cardiac Events: number of cardiac events (history of heart attack, coronary artery bypass or angioplasty) in patients on drug for at least one year; for observed difference between the proportions vs Total Control: treated group vs Total Control (Groups 1 + 4); for heart attacks compared with controls (in words): treated patients vs controls. The class given is in vivo, patients. Here is the method: A retrospective study was performed which compared the rates of patient reported heart attack in several groups: 1—control group of males entering the urology office for any routine complaint. 2—a group of prostate cancer patients treated with Leuprolide acetate, a LHRH inhibitor. 3—a group of prostate cancer patients treated with Goserelin acetate (Zoladex), a LHRH inhibitor. 4—a group of prostate cancer patients not treated with hormonal manipulation (neither Leuprolide or Goserelin). 5—a group of patients treated with Finasteride (another form of hormonal manipulation). 6—all patients on LHRH inhibitors (group 2+group 3). The patients on either leuprolide acetate or goserelin acetate were treated with the recommended doses indicated for the treatment of prostatic carcinoma, at either one or three month intervals depending on the preparation used. Leuprolide was dosed at 7.5 mg monthly (single intramuscular injection) or at 22.5 mg at 3 month intervals (single intramuscular injection). Goserelin was dosed at 3.6 mg monthly (subcutaneous injection) or at a dose of 10.8 mg at 3 month intervals (subcutaneous injection). The various groups of office patients were given a questionnaire. In groups 2, 3 and 5 only those on drug for at least one year were considered. Cardiac event is defined as either the history of a heart attack or occurrence of coronary artery bypass or angioplasty. In control groups only events occurring in the 3 years prior to the questionnaire are charted.

With `CC(=O)O.CCNC(=O)[C@@H]1CCCN1C(=O)[C@H](CCCNC(=N)N)NC(=O)[C@H](CC(C)C)NC(=O)[C@@H](CC(C)C)NC(=O)[C@H](Cc1ccc(O)cc1)NC(=O)[C@H](CO)NC(=O)[C@H](Cc1c[nH]c2ccccc12)NC(=O)[C@H](Cc1c[nH]cn1)NC(=O)[C@@H]1CCC(=O)N1` [leuprolide acetate, 5-oxo-L-prolyl-L-histidyl-L-tryptophyl-L-seryl-L-tyrosyl-D-leucyl-L-leucyl-L-arginyl-N-ethyl-L-prolinamide acetate salt], the Events/Year result is listed as “.00847”, the “Cardiac Events” value is 1, the “observed difference between the proportions vs Total Control” value is listed as 0.0253 and the “heart attacks compared with controls (in words)” value is “fewer heart attacks than controls”.

As for `CC(C)C[C@H](NC(=O)[C@@H](COC(C)(C)C)NC(=O)[C@H](Cc1ccc(O)cc1)NC(=O)[C@H](CO)NC(=O)[C@H](Cc1c[nH]c2ccccc12)NC(=O)[C@H](Cc1cnc[nH]1)NC(=O)[C@@H]1CCC(=O)N1)C(=O)N[C@@H](CCCNC(=N)N)C(=O)N1CCC[C@H]1C(=O)NNC(N)=O` [goserelin acetate, pyro-Glu-His-Trp-Ser-Tyr-D-Ser(Bu)-Leu-Arg-Pro-Azgly-NH2 acetate], the Events/Year result is given as “.0161”, the “Cardiac Events” value is 1, the “observed difference between the proportions vs Total Control” value was found to be 0.0177 and the “heart attacks compared with controls (in words)” value is “fewer heart attacks than controls”.

For `CC(C)(C)NC(=O)[C@H]1CC[C@H]2[C@@H]3CC[C@H]4NC(=O)C=C[C@]4(C)[C@H]3CC[C@]12C` [Finasteride], the Events/Year entry was “.0165”, the “Cardiac Events” value is reported as 4 and the “heart attacks compared with controls (in words)” value is “fewer heart attacks than control”. For the same compound, the “observed difference between the proportions vs Group 1 (Control)” value (Group 5 vs Group 1 (control, no cancer)) is recorded as 0.0186.
